Among the data in a melting point compilation (Tetko et al.; mined from patent text by program, amines drawn as free bases though some values may be those of a salt) are melting point values, retold here.

By melting point is commonly meant the temperature, or range, at which the solid turns liquid. `COc1ccc(N(C(=O)Nc2cc(C)c(S(=O)(=O)C[N+](=O)[O-])c(C)c2)c2ccc(OC)cc2)cc1` registered a melting point of 150 to 151 °C.
As to `O=C1Nc2ccc(Cl)cc2C2(c3ccccc3)OCCN12` (stereo not given), the melting point was in the range of 216 to 217 °C.
Turning to `CC(C)(C)c1ccc(/C=C/C(=O)Nc2ccc3occc3c2)cc1`, the melting point fell in the range of 149 to 150 °C.
As for `Cc1ccc(Cl)cc1N1C(=O)CN=C1SCc1ccccc1`, the melting point lay within 140 to 142 °C.
The compound `CCOP(=S)(OCC)SC(=CC(=O)c1cccc(Br)c1)C(=O)O` displayed a melting point of 107 to 111 °C.
In the case of `O=C1c2ccccc2C(=O)N1OCC/C=C/c1cccs1`, the melting point was in the range of 69 to 71 °C.
For the compound `CN1CCc2cc(S(=O)(=O)NC(=O)Nc3ccc(Cl)cc3)ccc21`, the melting point was in the range of 145 to 147 °C.
Under `CCN1CCc2ccc(OC)c(Nc3ncc(Cl)c(Nc4ccccc4S(=O)(=O)NC)n3)c2CC1` stands 171 to 188 °C; under `CC(=CC(=O)c1cccnc1)NCC(O)COc1ccc(NC(=O)NC2CCCCC2)cc1` (stereo not given), 168 °C; under `COc1ccccc1-c1cc2[nH]c3ccc(O)cc3c2c2c1C(=O)NC2=O`, 216 °C.
As for `O=C1CCCc2nc3ccccc3c(NCc3ccc(OCc4ccccc4)cc3)c21`, the melting point is 153 to 157 °C.
The compound `CC1(C)Cc2ccccc2C1NC=NC#N` (stereo not given) gave a melting point of 164 to 167 °C.
Under `O=C(O)c1cc(Cl)cc2c1NC(c1ccccc1)CC2` (stereo not given) stands 199 to 200 °C; under `Cc1ccc(S(=O)(=O)C(C)(C)C(=O)c2ccccc2)cc1`, 64 to 64.5 °C; under `CS(=O)(=O)Nc1cc2occ(C=Cc3ccccc3)c(=O)c2cc1Oc1ccccc1`, 174 to 175 °C.
`COc1c(O)c(CN2CCN(C)CC2)c(O)c2c(=O)cc(-c3ccccc3)oc12` showed a melting point of 179 °C.
Regarding `CCN1CCCC1CNC(=O)c1cc(S(C)(=O)=O)c(N)cc1OC` (stereo not given), the melting point lay within 151 to 152 °C.
Consider `CCCCCCCCCC(C)(C)c1cc(C(=O)Nc2ccc(C(=O)O)cc2)ccc1OC`, for which the melting point was 177 °C.
`CC(C)(C)c1cc(C(=O)c2ccco2)cc2c1OCC2(C)C` registered a melting point of 103 to 104 °C.
In turn, `COc1c(N2C[C@]3(C)CC[C@]3(N)C2)c(F)cc2c(=O)c(C(=O)O)cn([C@@H]3C[C@@H]3F)c12` yielded a melting point of 123 to 125 °C.
`O=S1(=O)c2ccccc2-n2c(Cl)nnc21` showed a melting point of 218 to 220 °C.
Compound `CC(=O)OCc1nc2cc(Cl)c(C)cc2c(=O)[nH]1` yielded a melting point of 220 to 225 °C.
In turn, `Cc1ccc(-c2ccc(-c3nnnn3CCCCCCc3cccnc3)cc2)cc1C` registered a melting point of 101 to 103 °C.
The compound `CC(=O)Nc1cccc2cc(S(=O)(=O)Nc3onc(C)c3C)ccc12` gave a melting point of 210 to 212 °C.
With `FC(F)c1nc2ccccc2n1-c1nc(NCc2ccccc2)nc(N2CCOCC2)n1`, the melting point was 185 to 188 °C.
The figure for `CCC1(CCCCCBr)C(=O)Nc2ccccc21` (stereo not given) is 77 to 78 °C; for `CN(N)C1=Nc2ccc(Cl)cc2C(c2ccccc2)=NC1` it is 167 to 173 °C.
`NC(=O)c1cc2c3ccccc3n(Cc3ccccc3)c2s1` showed a melting point of 207 °C.
The figure for `CC(=O)Nc1ccccc1C1OC(=O)NC1=O` (stereo not given) is 197 to 198 °C; for `O=C(Nc1ccc2c(c1)CCN(C(=O)OCc1ccccc1)C2)OCc1ccccc1` it is 115 to 116 °C.
With `COc1cc(N)c2ncccc2c1OCc1ccc(Cl)cc1`, the melting point fell in the range of 122 to 123 °C.
`CC(=O)c1ccc(Br)c(S(=O)(=O)Cl)c1` displayed a melting point of 107 °C.
Under `NS(=O)(=O)c1ccc(NN=C2C(=O)Nc3cc(Oc4ccccc4)ccc32)cc1` stands > 250 °C.
Consider `CCCC(=O)c1cnc2c(O)cccc2c1Nc1ccccc1C`, for which the melting point lay in the range of 113 to 115 °C.
Regarding `COc1ccc2ncnc(N3CCc4ccc(Cl)cc43)c2c1`, the melting point was determined as 243 °C.
In the case of `O=C1c2ccccc2-c2[nH]nc(-c3ccncc3)c21`, the melting point is > 300 °C.
For `O=C(Cn1nccc1-c1ccc(Oc2ccc(F)cc2)cc1)N1CCOCC1`, the melting point was in the range of 122 to 124 °C.
In the case of `Cc1[nH]cnc1CSCCNc1ncc(Cc2ccccc2)cc1C#N`, the melting point was 105 to 106 °C.
The figure for `CCC(=O)NC1Cc2ccccc2C(Cc2ccccc2)C1` (stereo not given) is 148 to 149 °C; for `Nc1cccc(-c2ccc(CCNCc3ccc(Cl)c(Cl)c3)c3ccccc23)n1` it is 145 to 170 °C.
For the compound `O=C(Nc1nnn[nH]1)c1ccc2nc3ccsc3c(=O)n2c1`, the melting point fell in the range of 295 to 296 °C.
In turn, `CCSC(=O)CCS(=O)(=O)CC` came in with a melting point of 35 to 36 °C.
In turn, `COCn1c(-c2nccs2)c(Cl)c2cccc([N+](=O)[O-])c21` gave a melting point of 106 to 107 °C.
Compound `CC(=O)NCCC1CCc2ccc(O)cc21` (stereo not given) gave a melting point of 107 to 108 °C.
In turn, `C[C@@H]1Cc2cc(N3C[C@H](C(N)=O)OC3=O)ccc2N1C=O` returned a melting point of 228 to 230 °C.
Under `NS(=O)(=O)c1ncc2ccccn12` stands 179 to 180 °C; under `COc1cc(C(C)=O)ccc1SCCCN1CCC(c2noc3cc(F)ccc23)CC1`, 93 to 95 °C; under `CC(=O)C1(C)COC(c2ccc([N+](=O)[O-])cc2)OC1` (stereo not given), 101 to 102 °C.
The figure for `Nc1ccc(Cl)cc1C=Nc1ccccc1` is 74 °C; for `CCCCNC(=O)c1cccc(S(=O)(=O)NC(=O)c2ccc(C(=O)NCC(=O)O)nc2)c1` it is 220 °C; for `CCCCCCCCCCCCc1nnn(C(C(N)=O)(c2ccccc2)c2ccc(F)cc2F)n1` (stereo not given) it is 62 to 64 °C.
Consider `CN(Cc1cc2c(=O)c(C(=O)NCc3ccc(Cl)cc3)cn(C)c2o1)CC(CO)c1ccccc1` (stereo not given), for which the melting point lay in the range of 141 to 148 °C.
The compound `COC(=O)C(c1ccccc1)C1CCN(c2ccc(N)cc2)CC1` (stereo not given) registered a melting point of 125 °C.
Take `CCOC(=O)c1cn(-c2nnc(C)s2)c2nc(Cl)c(F)cc2c1=O`: the melting point fell in the range of 159 to 162 °C.
Under `Cc1ccc(C(=O)Nc2ccc(C(=O)CCC(=O)O)cc2)cc1` stands 257 to 258 °C.
Compound `CCOC(=O)c1ccc(N2CCC(NCC(O)COc3ccc(N=Nc4ccc([N+](=O)[O-])cc4)nc3)CC2)nc1` (stereo not given) had a melting point of 172 °C.
Compound `COc1ncnc(OC)c1[N+](=O)[O-]` came in with a melting point of 168 to 170 °C.
The figure for `CC(=O)CCc1cccc(C)c1NC(=O)CC1c2ccccc2Oc2ccccc21` is 179 to 180 °C; for `O=c1oc2c(O)cccc2c(O)c1-c1ccccc1` it is 220 °C.
For the compound `CC(C)(C)NC(=O)CC(Cc1cccc2ccccc12)C(=O)O` (stereo not given), the melting point lay within 188 to 190 °C.
`CC(C)(N)c1cc(Cl)c(Cl)c(Cl)c1` displayed a melting point of 56 to 59 °C.
The figure for `NC(=S)NN=CC=Cc1ccccc1` is 137 to 139 °C; for `CC(O)c1cccc2c1OCO2` (stereo not given) it is 45 to 46 °C; for `COc1cc(C(=O)c2ncc3ccccn23)ccc1[N+](=O)[O-]` it is 183 °C.
On to `CCOC(=O)c1c(C(F)(F)F)nc(OCC)c(C(=O)OC)c1OCC`, for which the melting point fell in the range of 46 to 48 °C.
For the compound `O=c1c2ccc(Cl)cc2nc2n1CS(=O)(=O)N2`, the melting point is > 300 °C.
In the case of `COC(=O)C1=CCC2=Nc3ccccc3C2=C1C(=O)OC`, the melting point was 219 °C.
Consider `NC(=O)c1cccc(-c2nc3sccn3c2-c2ccnc(N[C@@H]3CCCN(S(=O)(=O)c4ccc(Cl)cc4)C3)n2)c1`, for which the melting point is 168 to 170 °C.
Compound `CCN1CCCC1CNC(=O)c1cc(N(C#N)S(C)(=O)=O)ccc1OC` (stereo not given) showed a melting point of 50 to 54 °C.
Regarding `Cc1cc(-c2ccc(Cl)cc2)nc(-c2ccnc(-c3ccc(S(N)(=O)=O)s3)c2)n1`, the melting point was 232 °C.
Compound `CCc1c(C(=O)O)nn(-c2ccc(Cl)cc2Cl)c1-c1ccc(Cl)cc1` came in with a melting point of 215 °C.
The figure for `O=C(CCc1ccccc1Cl)Nc1c(Cl)ccc2nc(N3CC[C@H](NCCO)C3)ccc12` is 180 to 182 °C; for `CC(C)(C)OC(=O)NC1Cc2ccccc2C1Oc1ccccc1` (stereo not given) it is 99 to 101 °C.
Under `CN(C)CCNC(=O)c1ccc(-c2nnc(CSCCOc3ccccc3)o2)cc1` stands 94 to 100 °C.
On to `CCOCOCCCc1ccc(C(=O)O)cc1C12CC3CC(CC(C3)C1)C2`, for which the melting point is 115 °C.
In turn, `Cn1c(Oc2cccc(C(F)(F)F)c2)nc2c(-c3cccc(C(=O)NCCO)c3)cccc21` registered a melting point of 139 to 140 °C.
Consider `CCCOc1ccccc1-c1nc2c(C=CCc3ccccc3)cccc2c(=O)[nH]1`, for which the melting point fell in the range of 123 to 126 °C.
Under `O=C(O)c1cccc(-c2nc3cc(N4CCCC4=O)ccc3o2)c1` stands 190 to 192 °C.
`Cn1c(=O)[nH]c(=O)c2c1ncn2CCCCCCO`: the melting point is 219 to 220 °C.
The figure for `CN(C)Cc1ccc2cc(NC(=O)c3ccc(-c4ccc(Cl)cc4)cc3)ccc2n1` is 219 to 221 °C; for `COc1ccc2c(c1)CCn1c-2ncc(C(=O)O)c1=O` it is 232 to 234 °C; for `COc1ccc(-c2c(C)cc3c(O)cc(C)nn23)c(C)c1` it is 234 to 237 °C.
`O=P(O)(O)Cc1ccc(S(=O)(=O)c2ccccc2)cc1` had a melting point of 217 to 219 °C.
For `CN(C)CCNC(=O)[C@H]1C[C@H](NC(=O)Nc2ccccc2)c2c(Cl)cc(Cl)cc2N1` (relative stereo), the melting point fell in the range of 223 to 224 °C.
`Cc1nc2cc3c(cc2[nH]1)[nH]c(=O)n3C` returned a melting point of 300 °C.
The compound `O=c1[nH]c(=Cc2ccc(OCc3ccccc3)cn2)c(=O)[nH]c1=Cc1ccc(Cl)c(Cl)c1` registered a melting point of 264 to 265 °C.
As for `COc1cc(OCC(CO)CO)c(C=CC(=O)c2ccc(C(=O)O)cc2)cc1-c1cccs1`, the melting point lay within 219 to 220 °C.
As to `CCCCC1=CC(O)(C(Br)Br)N(Cc2ccccc2)C1=O` (stereo not given), the melting point was in the range of 92 to 93 °C.
With `COc1cccc(-c2cn3cccc(C=O)c3n2)c1`, the melting point lay in the range of 71 to 73 °C.
The figure for `O=C1OC2(CCN(C(=O)Nc3cnc(-c4ccccc4)cn3)CC2)c2ccccc21` is 206 °C.
